Laboratory results from ChEMBL document CHEMBL2203174, “SAR Development of Lysine-Based Irreversible Inhibitors of Transglutaminase 2 for Huntington's Disease” (ACS Med Chem Lett, 2012).
≈ marks a conversion by molar mass, not a printed value. Peptide text beside a SMILES is read from it. * marks the point of attachment. Cbz = O=C(OCc1ccccc1)*; Acryloyl = C=CC(=O)*; OtBu = CC(C)(C)O*

Key:
[1] = Half life in human plasma at 1 uM by LC-MS/MS analysis; type: ADME, cell-free
MDR1 = experiment: Efflux ratio of permeability in MDCK cells expressing MDR1 at 10 uM; type: ADME, cell-based, Canis lupus familiaris; settings: dog
[2] = Apparent permeability of the compound across apical to basolateral side in wild type MDCK cells at 10 uM; type: ADME, cell-based, Canis lupus familiaris; settings: dog
[3] = Intrinsic clearance in human liver microsomes at 1 uM by LC-MS/MS analysis; type: ADME, Microsome; settings: read-out: CLH
[4] = Half life in mouse plasma at 1 uM by LC-MS/MS analysis; type: ADME, cell-free
[5] = Kinetic solubility of the compound in PBS at pH 7.4 by LC-UV analysis; type: physicochemical; settings: read-out: Kinetic_solubility
[6] = molecular target: T1, Protein-glutamine gamma-glutamyltransferase (Homo sapiens, UniProt P21980); experiment: Irreversible inhibition of transglutaminase 2
T1 sequence (P21980 whole entry): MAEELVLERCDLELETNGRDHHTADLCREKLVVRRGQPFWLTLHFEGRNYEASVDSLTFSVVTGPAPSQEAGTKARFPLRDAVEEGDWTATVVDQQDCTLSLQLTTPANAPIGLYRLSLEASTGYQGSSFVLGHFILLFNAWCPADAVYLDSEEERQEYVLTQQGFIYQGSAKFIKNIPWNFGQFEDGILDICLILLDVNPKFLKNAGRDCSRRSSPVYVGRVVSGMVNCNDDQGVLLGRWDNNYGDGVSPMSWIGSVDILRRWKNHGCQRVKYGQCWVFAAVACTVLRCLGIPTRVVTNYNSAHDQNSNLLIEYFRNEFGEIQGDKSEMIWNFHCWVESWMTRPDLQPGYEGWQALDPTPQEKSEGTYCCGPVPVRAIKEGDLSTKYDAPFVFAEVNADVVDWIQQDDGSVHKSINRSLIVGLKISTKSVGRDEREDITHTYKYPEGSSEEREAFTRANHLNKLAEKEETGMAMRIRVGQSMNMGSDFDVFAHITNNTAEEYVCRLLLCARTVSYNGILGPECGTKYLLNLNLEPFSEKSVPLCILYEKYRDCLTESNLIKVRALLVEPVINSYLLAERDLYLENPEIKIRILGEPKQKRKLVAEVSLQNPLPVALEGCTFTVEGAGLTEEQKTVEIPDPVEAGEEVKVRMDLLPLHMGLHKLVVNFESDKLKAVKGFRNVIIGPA

[7] = Intrinsic clearance in mouse liver microsomes at 1 uM by LC-MS/MS analysis; type: ADME, Microsome; settings: read-out: CLH
[8] = Ratio of IC50 for mouse transglutaminase 2 to IC50 for human transglutaminase 2
[9] = Apparent permeability of the compound across apical to basolateral side in human Caco2 cells; type: ADME, cell-based; settings: Caco-2
[10] = Half life in mouse liver microsomes; type: ADME, Microsome
[11] = Aqueous solubility of the compound; type: physicochemical; settings: buffer
[12] = molecular target: T2, Protein-glutamine gamma-glutamyltransferase 2 (Mus musculus, UniProt P21981); experiment: Inhibition of mouse transglutaminase 2
T2 sequence (P21981 whole entry): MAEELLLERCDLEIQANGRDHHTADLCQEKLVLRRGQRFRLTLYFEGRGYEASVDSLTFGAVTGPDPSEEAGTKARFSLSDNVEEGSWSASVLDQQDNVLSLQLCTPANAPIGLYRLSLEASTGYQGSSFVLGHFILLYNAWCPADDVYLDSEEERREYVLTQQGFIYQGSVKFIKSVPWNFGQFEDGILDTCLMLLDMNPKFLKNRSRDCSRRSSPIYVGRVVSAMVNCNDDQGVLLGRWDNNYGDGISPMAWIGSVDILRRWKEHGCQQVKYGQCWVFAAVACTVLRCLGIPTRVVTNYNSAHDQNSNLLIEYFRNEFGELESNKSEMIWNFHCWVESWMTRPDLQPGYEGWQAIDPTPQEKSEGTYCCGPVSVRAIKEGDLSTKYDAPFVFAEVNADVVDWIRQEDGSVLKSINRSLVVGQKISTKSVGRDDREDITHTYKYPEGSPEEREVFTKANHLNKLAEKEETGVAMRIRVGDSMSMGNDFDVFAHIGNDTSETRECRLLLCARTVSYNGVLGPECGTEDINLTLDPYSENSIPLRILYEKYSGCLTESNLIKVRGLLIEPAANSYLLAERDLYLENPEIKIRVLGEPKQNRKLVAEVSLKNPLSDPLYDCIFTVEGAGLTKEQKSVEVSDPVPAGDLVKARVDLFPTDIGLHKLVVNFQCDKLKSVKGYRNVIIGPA

[13] = Apparent permeability of the compound across basolateral to apical side in human Caco2 cells; type: ADME, cell-based; settings: Caco-2

## C=CC(=O)NCCCC[C@H](NC(=O)OCc1ccccc1)C(=O)N1CCN(c2ccccc2Cl)CC1
[1]
  half-life at 1 µM: > 8 h
MDR1
  efflux ratio at 10 µM: 7.1
[2]
  Papp A→B at 10 µM: 30.3 ×10⁻⁶ cm/s
[3]
  microsomal CLint at 1 µM: > 1390 µL/min/mg
[4]
  half-life at 1 µM: > 8 h
[5]
  solubility kinetic: 60 µg/mL (≈ 117 µM)
[6]
  IC50: 62 nM
[7]
  microsomal CLint at 1 µM: > 1390 µL/min/mg
[8]
  Ratio IC50: 2

## C=CC(=O)NCCCC[C@H](NC(=O)OCc1ccccc1)C(=O)NCC(=O)OC(C)(C)C (Cbz-Lys(Acryloyl)-Gly-OtBu)
[9]
  Papp A→B: 7.5 ×10⁻⁶ cm/s
[10]
  half-life: 7 min
[11]
  solubility: 1490 µg/mL (≈ 3330 µM)
[6]
  IC50: 3100 nM
[12]
  IC50: 6200 nM
[13]
  Papp B→A: 25 ×10⁻⁶ cm/s

## C=CC(=O)NCCCC[C@H](NC(=O)Cc1ccccc1)C(=O)N1CCN(c2cccc(C)n2)CC1
[1]
  half-life at 1 µM: > 24 h
MDR1
  efflux ratio at 10 µM: 118
[2]
  Papp A→B at 10 µM: 14.2 ×10⁻⁶ cm/s
[3]
  microsomal CLint at 1 µM: > 1390 µL/min/mg
[4]
  half-life at 1 µM: > 24 h
[5]
  solubility kinetic: 870 µg/mL (≈ 1820 µM)
[6]
  IC50: 14 nM
